Source: patent US20230067378A1, “COMPOSITIONS AND METHODS FOR THE TREATMENT OF ESTROGEN-DEPENDENT DISORDERS” (ObsEva S.A., priority 2018, published 2023)

Tested on: pre-menopausal women
Assay: uterine bleeding pattern, clinical trial of compound (VI) 200 mg per day (choline salt) with add-back therapy (1.0 mg E2, 0.5 mg norethindrone acetate)
Format: in vivo, human
Experimental: The experiments described in this example were conducted as part of a single-center, open-label, randomized, parallel-group clinical trial in 32 pre-menopausal women. Following screening assessments, and during the second half of the menstrual cycle, women received norethindrone (5 mg, three-times daily for 10 days) to synchronize menstrual cycles. After menstrual cycle synchronization, subjects were randomized with a 1:1 ratio to one of two treatment arms: (i) a cohort receiving once-daily administration of compound (VI) (200 mg per day, administered in the form of a choline salt) with concurrent onset of add-back therapy administration for 10 weeks (“Concurrent-ABT”), or (ii) a cohort receiving pre-treatment with compound (VI) (200 mg per day, administered in the form of a choline salt) for 4 weeks followed by combined daily administration of compound (VI) and add-back therapy (“Delayed-ABT”). The add-back therapy used in these experiments contained 1.0 mg of E2 and 0.5 mg of norethindrone acetate, and was administered to subjects once daily.
The main treatment outcomes and endpoints measured during these experiments included (i) a qualitative assessment of uterine blood loss, which was recorded on a daily basis throughout the study by characterizing each subject's bleeding pattern using one of the following four categories: “no bleeding,” “spotting” (light staining, dark blood, no sanitary protection needed or only panty liner), “bleeding” (1-4 completely soiled maxi sanitary towels or 1-8 soiled tampons or equivalent combination of the two), or “heavy bleeding” (>4 completely soiled maxi sanitary towels or >8 soiled tampons or equivalent combination of the two); (ii) a bi-weekly assessment of each subject's circulating E2 concentration; (iii) a bi-weekly assessment of each subject's circulating progesterone concentration (measured using a validated commercial chemiluminescence immunoassay method (Elecsys Progesterone III, Roche, Burgess Hill, UK)); (iv) the pharmacokinetic profile of compound (VI) and the add-back therapy; and (v) adverse events.

[1] = Days 29-42, treatment A (Concurrent-ABT), N=14
[2] = Days 29-42, treatment B (Delayed-ABT), N=15
[3] = Days 43-56, Overall (A+B), N=29
[4] = Days 43-56, treatment A (Concurrent-ABT), N=14
[5] = Days 43-56, treatment B (Delayed-ABT), N=15
[6] = Days 57-70, Overall (A+B), N=29
[7] = Days 57-70, treatment A (Concurrent-ABT), N=14
[8] = Days 57-70, treatment B (Delayed-ABT), N=15
[9] = Delayed-ABT cohort, after add-back therapy was initiated in week 5

COc1cc(F)c(-n2c(=O)[nH]c3csc(C(=O)O)c3c2=O)cc1OCc1c(OC)ccc(F)c1F [Compound (VI), 3-[2-fluoro-5-(2,3-difluoro-6-methoxybenzyloxy)4-methoxyphenyl]-2,4-dioxo-1,2,3,4-tetrahydrothieno [3,4d]pyrimidine-5-carboxylic acid]
No Bleeding or Spotting, subjects (n), Plasma Estradiol Level 20-50 pg/mL [1]: 9 | No Bleeding or Spotting, subjects (n), Plasma Estradiol Level <20 pg/mL [1]: 1 | No Bleeding or Spotting, subjects (n), Plasma Estradiol Level >50 pg/mL [1]: 3 | No Bleeding, subjects (%), Plasma Estradiol Level 20-50 pg/mL [1]: (50.0%) | No Bleeding, subjects (%), Plasma Estradiol Level <20 pg/mL [1]: (7.1%) | No Bleeding, subjects (%), Plasma Estradiol Level >50 pg/mL [1]: (21.4%) | No Bleeding, subjects (n), Plasma Estradiol Level 20-50 pg/mL [1]: 7 | No Bleeding, subjects (n), Plasma Estradiol Level <20 pg/mL [1]: 1 | No Bleeding, subjects (n), Plasma Estradiol Level >50 pg/mL [1]: 3 | No Bleeding or Spotting, subjects (%), Plasma Estradiol Level 20-50 pg/mL [2]: (46.7%) | No Bleeding or Spotting, subjects (%), Plasma Estradiol Level <20 pg/mL [2]: (20.0%) | No Bleeding or Spotting, subjects (%), Plasma Estradiol Level >50 pg/mL [2]: (20.0%) | No Bleeding or Spotting, subjects (n), Plasma Estradiol Level 20-50 pg/mL [2]: 7 | No Bleeding or Spotting, subjects (n), Plasma Estradiol Level <20 pg/mL [2]: 3 | No Bleeding or Spotting, subjects (n), Plasma Estradiol Level >50 pg/mL [2]: 3 | No Bleeding, subjects (%), Plasma Estradiol Level 20-50 pg/mL [2]: (33.3%) | No Bleeding, subjects (%), Plasma Estradiol Level <20 pg/mL [2]: (20.0%) | No Bleeding, subjects (%), Plasma Estradiol Level >50 pg/mL [2]: (13.3%) | No Bleeding, subjects (n), Plasma Estradiol Level 20-50 pg/mL [2]: 5 | No Bleeding, subjects (n), Plasma Estradiol Level <20 pg/mL [2]: 3 | No Bleeding, subjects (n), Plasma Estradiol Level >50 pg/mL [2]: 2 | No Bleeding or Spotting, subjects (%), Plasma Estradiol Level 20-50 pg/mL [3]: (51.7%) | No Bleeding or Spotting, subjects (%), Plasma Estradiol Level <20 pg/mL [3]: (13.8%) | No Bleeding or Spotting, subjects (%), Plasma Estradiol Level >50 pg/mL [3]: (17.2%) | No Bleeding or Spotting, subjects (n), Plasma Estradiol Level 20-50 pg/mL [3]: 15 | No Bleeding or Spotting, subjects (n), Plasma Estradiol Level <20 pg/mL [3]: 4 | No Bleeding or Spotting, subjects (n), Plasma Estradiol Level >50 pg/mL [3]: 5 | No Bleeding, subjects (%), Plasma Estradiol Level 20-50 pg/mL [3]: (37.9%) | No Bleeding, subjects (%), Plasma Estradiol Level <20 pg/mL [3]: (10.3%) | No Bleeding, subjects (%), Plasma Estradiol Level >50 pg/mL [3]: (13.8%) | No Bleeding, subjects (n), Plasma Estradiol Level 20-50 pg/mL [3]: 11 | No Bleeding, subjects (n), Plasma Estradiol Level <20 pg/mL [3]: 3 | No Bleeding, subjects (n), Plasma Estradiol Level >50 pg/mL [3]: 4 | No Bleeding or Spotting, subjects (%), Plasma Estradiol Level 20-50 pg/mL [4]: (57.1%) | No Bleeding or Spotting, subjects (%), Plasma Estradiol Level <20 pg/mL [4]: (7.1%) | No Bleeding or Spotting, subjects (%), Plasma Estradiol Level >50 pg/mL [4]: (21.4%) | No Bleeding or Spotting, subjects (n), Plasma Estradiol Level 20-50 pg/mL [4]: 8 | No Bleeding or Spotting, subjects (n), Plasma Estradiol Level <20 pg/mL [4]: 1 | No Bleeding or Spotting, subjects (n), Plasma Estradiol Level >50 pg/mL [4]: 3 | No Bleeding, subjects (%), Plasma Estradiol Level 20-50 pg/mL [4]: (50.0%) | No Bleeding, subjects (%), Plasma Estradiol Level <20 pg/mL [4]: (7.1%) | No Bleeding, subjects (%), Plasma Estradiol Level >50 pg/mL [4]: (21.4%) | No Bleeding, subjects (n), Plasma Estradiol Level 20-50 pg/mL [4]: 7 | No Bleeding, subjects (n), Plasma Estradiol Level <20 pg/mL [4]: 1 | No Bleeding, subjects (n), Plasma Estradiol Level >50 pg/mL [4]: 3 | No Bleeding or Spotting, subjects (%), Plasma Estradiol Level 20-50 pg/mL [5]: (46.7%) | No Bleeding or Spotting, subjects (%), Plasma Estradiol Level <20 pg/mL [5]: (20.0%) | No Bleeding or Spotting, subjects (%), Plasma Estradiol Level >50 pg/mL [5]: (13.3%) | No Bleeding or Spotting, subjects (n), Plasma Estradiol Level 20-50 pg/mL [5]: 7 | No Bleeding or Spotting, subjects (n), Plasma Estradiol Level <20 pg/mL [5]: 7 | No Bleeding or Spotting, subjects (n), Plasma Estradiol Level >50 pg/mL [5]: 2 | No Bleeding, subjects (%), Plasma Estradiol Level 20-50 pg/mL [5]: (26.7%) | No Bleeding, subjects (%), Plasma Estradiol Level <20 pg/mL [5]: (13.3%) | No Bleeding, subjects (%), Plasma Estradiol Level >50 pg/mL [5]: (6.7%) | No Bleeding, subjects (n), Plasma Estradiol Level 20-50 pg/mL [5]: 4 | No Bleeding, subjects (n), Plasma Estradiol Level <20 pg/mL [5]: 2 | No Bleeding, subjects (n), Plasma Estradiol Level >50 pg/mL [5]: 1 | No Bleeding or Spotting, subjects (%), Plasma Estradiol Level 20-50 pg/mL [6]: (48.3%) | No Bleeding or Spotting, subjects (%), Plasma Estradiol Level <20 pg/mL [6]: (20.7%) | No Bleeding or Spotting, subjects (%), Plasma Estradiol Level >50 pg/mL [6]: (13.8%) | No Bleeding or Spotting, subjects (n), Plasma Estradiol Level 20-50 pg/mL [6]: 14 | No Bleeding or Spotting, subjects (n), Plasma Estradiol Level <20 pg/mL [6]: 6 | No Bleeding or Spotting, subjects (n), Plasma Estradiol Level >50 pg/mL [6]: 4 | No Bleeding, subjects (%), Plasma Estradiol Level 20-50 pg/mL [6]: (41.4%) | No Bleeding, subjects (%), Plasma Estradiol Level <20 pg/mL [6]: (20.7%) | No Bleeding, subjects (%), Plasma Estradiol Level >50 pg/mL [6]: (10.3%) | No Bleeding, subjects (n), Plasma Estradiol Level 20-50 pg/mL [6]: 12 | No Bleeding, subjects (n), Plasma Estradiol Level <20 pg/mL [6]: 6 | No Bleeding, subjects (n), Plasma Estradiol Level >50 pg/mL [6]: 3 | No Bleeding or Spotting, subjects (%), Plasma Estradiol Level 20-50 pg/mL [7]: (50.0%) | No Bleeding or Spotting, subjects (%), Plasma Estradiol Level <20 pg/mL [7]: (21.4%) | No Bleeding or Spotting, subjects (%), Plasma Estradiol Level >50 pg/mL [7]: (21.4%) | No Bleeding or Spotting, subjects (n), Plasma Estradiol Level 20-50 pg/mL [7]: 7 | No Bleeding or Spotting, subjects (n), Plasma Estradiol Level <20 pg/mL [7]: 3 | No Bleeding or Spotting, subjects (n), Plasma Estradiol Level >50 pg/mL [7]: 3 | No Bleeding, subjects (%), Plasma Estradiol Level 20-50 pg/mL [7]: (42.9%) | No Bleeding, subjects (%), Plasma Estradiol Level <20 pg/mL [7]: (21.4%) | No Bleeding, subjects (%), Plasma Estradiol Level >50 pg/mL [7]: (21.4%) | No Bleeding, subjects (n), Plasma Estradiol Level 20-50 pg/mL [7]: 6 | No Bleeding, subjects (n), Plasma Estradiol Level <20 pg/mL [7]: 3 | No Bleeding, subjects (n), Plasma Estradiol Level >50 pg/mL [7]: 3 | No Bleeding or Spotting, subjects (%), Plasma Estradiol Level 20-50 pg/mL [8]: (46.7%) | No Bleeding or Spotting, subjects (%), Plasma Estradiol Level <20 pg/mL [8]: (20.0%) | No Bleeding or Spotting, subjects (%), Plasma Estradiol Level >50 pg/mL [8]: (6.7%) | No Bleeding or Spotting, subjects (n), Plasma Estradiol Level 20-50 pg/mL [8]: 7 | No Bleeding or Spotting, subjects (n), Plasma Estradiol Level <20 pg/mL [8]: 3 | No Bleeding or Spotting, subjects (n), Plasma Estradiol Level >50 pg/mL [8]: 1 | No Bleeding, subjects (%), Plasma Estradiol Level 20-50 pg/mL [8]: (40.0%) | No Bleeding, subjects (%), Plasma Estradiol Level <20 pg/mL [8]: (20.0%) | No Bleeding, subjects (%), Plasma Estradiol Level >50 pg/mL [8]: (0.0%) | No Bleeding, subjects (n), Plasma Estradiol Level 20-50 pg/mL [8]: 6 | No Bleeding, subjects (n), Plasma Estradiol Level <20 pg/mL [8]: 3 | No Bleeding, subjects (n), Plasma Estradiol Level >50 pg/mL [8]: 0 | uterine bleeding / amenorrhea (Delayed-ABT cohort, Compound (VI) alone (first 4 weeks), FIG. 1A): amenorrhea in all subjects by week 5 | bleeding, frequency [9]: ≤ 8% | spotting, frequency [9]: ≤ 11% | women in amenorrhea within 5 days of treatment (Delayed-ABT group): ~20% | women in amenorrhea (Delayed-ABT group, last 4 weeks of treatment, p=0.03): 40% | Uterine Bleeding Pattern: amenorrhea (Delayed-ABT, Weeks 2-4, achieved in week 5): almost 100% amenorrhea (achieved in week 5) | Uterine Bleeding Pattern: onset of spotting and bleeding (Delayed-ABT, Weeks 6-10): Spotting and bleeding began after 1 week of add-
